This is an account of results in patent US7569542B2, “Anti-microbial targeting chimeric pharmaceutical” (priority 1999, dated 2009).

The test system of one data set is B. cepacia. Format: cell-based. Here is the method:
(§1) To test the antimicrobial activity of the fusion peptides against target bacteria, a panel of bacteria, both gram positive and gram negative, were tested.

The test system of a further data set is E. coli 3132 (wt). Format: cell-based. Here is the method: as §1
Another data set deals with E. coli Aw405. Format: cell-based. Here is the method:
as §1

A further data set deals with E. coli Mg1665 (smooth). Format: cell-based. On the procedure: as §1
The subject of the next data set is E. coli W3110 ampR. Format: cell-based. On the procedure:
as §1

Data set [1] relates to E. coli W3110. Format: cell-based. On the procedure: as §1
The test system of another data set is Klebsiella Kay2026. Format: cell-based. On the procedure: as §1
The next data set has as its system Myxococcus. Format: cell-based. On the procedure: as §1
The next data set deals with P. aeruginosa Pak (ATCC). Format: cell-based. On the procedure:
as §1

In a further data set the test system is P. aeruginosa Pak. Format: cell-based. The conditions noted are these: for MBC: Pak. Here is the method: as §1
The next data set has as its system P. fluorescens 1088. Format: cell-based. On the procedure: as §1
For the next data set, the system named is P. fluorescens 1089. Format: cell-based. On the procedure: as §1
Data set [2] deals with P. mendocina. Format: cell-based. On the procedure:
as §1

Another data set relates to P. tabaci. Format: cell-based. On the procedure: as §1
The next data set concerns S. aureus. Format: cell-based. Here is the method:
as §1

Another data set deals with S. mitis. Format: cell-based. On the procedure: as §1
The next data set has as its system S. mutans 140. Format: cell-based. On the procedure: as §1
A further data set deals with S. mutans 159. Format: cell-based. Here is the method: as §1
Another data set deals with S. oralis. Format: cell-based. On the procedure: as §1
Data set [3] has as its system S. sanguis. Format: cell-based. On the procedure:
as §1

Another data set deals with Salmonella Lt2 (ATCC). Format: cell-based. Here is the method: as §1
Another data set concerns Y. entercolitica. Format: cell-based. On the procedure: as §1
Data set [4] relates to P. mendocina. Format: cell-based, Pseudomonas mendocina. On the procedure:
(§2) Briefly, varying concentrations of peptide G10, G10CatC, or G10CatN was added to 10^5 of target bacterial cells and survivors were counted by plating samples after 0.5, 1, 2 and 4 minutes of peptide exposure.

For data set [5], the system named is P. mendocina. The experiment in a line: Long-term time-kill experiment (up to 2 h). Format: cell-based, Pseudomonas mendocina. The settings on record: for time to kill all input P. mendocina cells: 3 μM peptide; for surviving P. mendocina cells: 9 μM peptide. On the procedure: Similar to the short-term kinetic studies described above, treatment with 3 μM G10CatC killed all input P. mendocina cells within 30 min, in contrast, it took 2 h for G10 alone to kill all input P. mendocina cells at the same concentration.

Data set [6] relates to E. coli W3110. The experiment in a line: Selective killing in mixed culture of P. mendocina and E. coli W3110. Format: cell-based. The settings on record: 6 μM peptide, 4 min; mixed with P. mendocina; preliminary results. Here is the method:
(§3) To test if G10CatC can selectively kill its target bacteria in a mixed culture, 10^5 of P. mendocina and E. coli W3110 cells were mixed and treated with 6 μM G10 or G10CatC peptides. Samples were taken at 30 sec. 1 min, 2 min, and 4 min, and survivors were counted by plating assays.

In data set [7] the test system is P. mendocina. The description is as above. Format: cell-based. The conditions noted are these: 6 μM peptide, 4 min; mixed with E. coli W3110; preliminary results. Here is the method: as §3
For another data set, the system named is S. mutans cells. The experiment in a line: Selective killing in mixed culture of PAK and S. mutans cells. Format: cell-based. The settings on record: 9 μM peptide, within 4 min; mixed with PAK cells. The text has this:
(§4) In contrast, G10CatC killed over 90% of PAK cells, but none of S. mutans cells.

The test system of data set [8] is PAK cells. Format: cell-based, Pseudomonas aeruginosa PAK. The settings on record: 18 μM peptide, up to 4 min. On the procedure:
as §2

Data set [9] deals with PAK cells. Briefly: Selective killing in mixed culture of PAK and S. mutans cells. The settings on record: 9 μM peptide, within 4 min; mixed with S. mutans. Format: cell-based, P. aeruginosa.
Text: as §4

In the next data set the test system is Host cells. The experiment in a line: Minimal Inhibitory Concentrations. Format: cell-based.
Data set [10] deals with S. sanguis.
The test system of data set [11] is PAK cells. Briefly: Competition-binding experiment, labeled vs unlabeled Cat-1, fluorescent microscopy. Also on record: species or system P. aeruginosa. Here is the method:
To further confirm the specificity of Cat-1 binding to Pak cells, competition-binding experiments were conducted. Labeled Cat-1 was mixed with increasing concentrations of unlabeled Cat-1, and fluorescent labeling of the target bacterial cells was measured by fluorescent microscopy.

Data set [12] can be described thus: Antimicrobial activity of targeting peptide alone. Format: cell-based.

Where no end group is shown, it is not given here.

By MBC is commonly meant the smallest concentration meeting the test's criterion for killing. A higher MBC goes with less potent killing.

For “KKHRKHRKHRKHGGSGGSKNLRRIIRKGIHIIKKYG [G10CatC]”, the MBC with B. cepacia stood at 13 µM; against E. coli 3132 (wt), 5.8 µM; against E. coli Aw405, 11.6 µM; against E. coli Mg1665 (smooth) it was 2.9 µM; in the data set with E. coli W3110 ampR, 2.9 µM; against E. coli W3110 [1], 2.81 µM. Also, the MBC was 11.6 to 23.2 µM in the data set on Klebsiella Kay2026; more than 11.6 µM with Myxococcus; 4.9 µM against P. aeruginosa Pak (ATCC); 1.4 to 2.9 µM against P. aeruginosa Pak; 1.45 µM in the data set on P. fluorescens 1088; 2.9 µM against P. fluorescens 1089. Moreover, the MBC is 1.4 to 2.4 µM with P. mendocina [2]; 2.175 µM against P. tabaci; more than 23.2 µM in the data set on S. aureus; more than 58 µM in the data set with S. mitis; 3.6 to 7.25 µM in the data set with S. mutans 140; 3.6 to 7.25 µM in the data set on S. mutans 159. Also, the MBC with S. oralis was more than 58 µM; against S. sanguis [3], 3.6 to 7.25 µM; in the data set on Salmonella Lt2 (ATCC), 11.6 to 23.2 µM; with Y. entercolitica, 23.2 µM. Also, the “enhancement of killing activity relative to G10” value in the data set with P. aeruginosa Pak (against Pak, from MBC) is listed as 38 fold. Further, in the data set with P. mendocina [2] (P. mendocina), the “MBC relative to G10 alone (higher)” value worked out at 2 ×. For the same compound, the “decrease of killing activity relative to G10” value in the data set with P. mendocina [2] (against P. mendocina, from MBC) amounted to 2 fold. For the same compound, the “time to reduce live P. mendocina cells to below detectable levels” value with P. mendocina [4] (3 μM peptide) is given as not above 4 min. Besides, in the data set on P. mendocina [5], the “time to kill all input P. mendocina cells” value is reported as not above 30 min. Further, the “surviving P. mendocina cells” value in the data set on P. mendocina [5] (after 2 minutes of treatment) was “no surviving P. mendocina cells were recovered”. In addition, the “live W3110 cells in mixed culture” value with E. coli W3110 [6] is on record as “remained nearly unchanged”. In the data set on P. mendocina [7], the “live P. mendocina cells in mixed culture” value is “no live P. mendocina cells could be detected”. Besides, the “killing of S. mutans cells in mixed culture” value in the data set with S. mutans cells is reported as “none”.

Turning to “KNLRRIIRKGIHIIKKYGGGSGGSKKHRKHRKHRKH [G10CatN]”, the MBC is 11.6 µM with B. cepacia; 11.6 µM in the data set on E. coli 3132 (wt); more than 23.2 µM in the data set with E. coli Aw405; more than 23.2 µM in the data set on E. coli Mg1665 (smooth); more than 11.6 µM with E. coli W3110 [1]; more than 11.6 µM with Klebsiella Kay2026. In addition, the MBC in the data set with Myxococcus was more than 11.6 µM; in the data set with P. aeruginosa Pak (ATCC), 17.4 µM; in the data set on P. aeruginosa Pak, 45 µM; against P. fluorescens 1088, 1.45 µM; in the data set with P. fluorescens 1089, 11.6 µM; in the data set with P. mendocina [2] it was 2.8 µM. Besides, the MBC against P. tabaci was more than 11.6 µM; with S. aureus, more than 23.2 µM; against Salmonella Lt2 (ATCC), more than 23.2 µM; against Y. entercolitica it was more than 23.2 µM. Also, in the data set with P. mendocina [4] (any concentration tested, through 4 minutes), the killing entry is “no killing”.

For the compound “KNLRRIIRKGIHIIKKYG [G10, KNLRRIIRKGIHIIKKYG, reference compound]”, the MBC against B. cepacia turned out to be 23 µM; against E. coli 3132 (wt), 11.25 µM; in the data set with E. coli Aw405, 2.8 µM; in the data set with E. coli Mg1665 (smooth) it was 2.8 µM; with E. coli W3110 ampR, 2.8 µM; with E. coli W3110 [1] it was 1.4 µM. Moreover, the MBC against Klebsiella Kay2026 was more than 11.25 µM; against Myxococcus, more than 11.25 µM; against P. aeruginosa Pak (ATCC), 42.18 µM; in the data set with P. aeruginosa Pak it was 54.5 µM; in the data set with P. fluorescens 1088 it was 1.4 µM; against P. fluorescens 1089, more than 11.25 µM. Besides, the MBC with P. mendocina [2] was 1.05 µM; with P. tabaci, 5.625 µM; in the data set on S. aureus, more than 22.5 µM; against S. mitis, more than 58 µM; in the data set with S. mutans 140, 3.5 to 7.03 µM; in the data set on S. mutans 159 it was 3.5 to 7.03 µM. In addition, the MBC is more than 58 µM with S. oralis, 3.5 to 7.03 µM against S. sanguis [3], more than 22.5 µM against Salmonella Lt2 (ATCC) and 22.5 µM against Y. entercolitica. The killing activity result in the data set with P. mendocina [4] (3 μM peptide, within 4 min) is given as “did not display any killing activity”; with PAK cells [8], “did not show any killing activity”. Moreover, in the data set on P. mendocina [5], the “time to kill all input P. mendocina cells” value came to 120 min. Moreover, the “surviving P. mendocina cells” value in the data set on P. mendocina [5] (after 30 minutes of exposure) was “a significant number of cells were recovered”. In the data set on E. coli W3110 [6], the “live W3110 cells in mixed culture” value was “did not affect the survival”. Also, the “live P. mendocina cells in mixed culture” value with P. mendocina [7] is on record as “did not affect the survival”. Besides, the “killing of PAK cells in mixed culture” value in the data set with PAK cells [9] is listed as “did not kill any of the cells”. For the same compound, the “killing of S. mutans cells in mixed culture” value with S. mutans cells is reported as “did not kill any of the cells”.

Turning to `C[C@H](NC(=O)[C@H](Cc1cnc[nH]1)NC(=O)[C@H](CO)NC(=O)[C@@H](N)CC(=O)O)C(=O)N[C@@H](CCCCN)C(=O)N[C@@H](CCCNC(=N)N)C(=O)N[C@@H](Cc1cnc[nH]1)C(=O)N[C@@H](Cc1cnc[nH]1)C(=O)NCC(=O)N[C@@H](Cc1ccc(O)cc1)C(=O)N[C@@H](CCCCN)C(=O)N[C@@H](CCCNC(=N)N)C(=O)N[C@@H](CCCCN)C(=O)N[C@@H](Cc1ccccc1)C(=O)N[C@@H](Cc1cnc[nH]1)C(=O)N[C@@H](CCC(=O)O)C(=O)N[C@@H](CCCCN)C(=O)N[C@@H](Cc1cnc[nH]1)C(=O)N[C@@H](Cc1cnc[nH]1)C(=O)N[C@@H](CO)C(=O)N[C@@H](Cc1cnc[nH]1)C(=O)N[C@@H](CCCNC(=N)N)C(=O)NCC(=O)N[C@@H](Cc1ccc(O)cc1)C(=O)O` [Histatin 5, DSHAKRHHGY KRKFHEKHHS HRGY], the “Minimal Inhibitory Concentrations” value is more than 50 µM in the data set on Host cells, approximately 10 µM with S. mutans and approximately 10 µM in the data set on S. sanguis [10].

As to “KKHRKHRKHRKH (Design peptide) [Cat-1, 61]”, the entries for the “fluorescent signal of labeled Cat-1 on PAK cells” value in the data set on PAK cells [11] (10× molar excess unlabeled Cat-1) and in the data set on PAK cells [11] (equal molar concentration of unlabeled Cat-1 added) were “completely abolished” and “reduced”, respectively. For the same compound, the antimicrobial activity result in [12] is listed as “does not have any antimicrobial activity”.
